The subject of assay [1] is Pseudomonas aeruginosa ATCC 27853. In words: Antibacterial activity (MIC), microbroth dilution. Type of assay: cell-based. Conditions: Pseudomonas aeruginosa, ATCC27853, read-out: Antibacterial activity (MIC). The method, then:
(§1) Reference bacterial strains were obtained from the American Type Culture Collection (ATCC). Vancomycin resistant Enterococcus faecium (VRE 734, wastewater isolate from the Venter Laboratory Collection) was isolated on Bile Esculin agar (Oxoid, Australia) containing 6 μg/mL vancomycin and identified using MALDI-TOF mass spectrometry (Bruker, Preston, Victoria, Australia, Australian Center for Antimicrobial Resistance Ecology). The Pseudomonas aeruginosa WT PAO1 and Escherichia coli with deletions of both acrA and acrB genes encoding drug efflux pumps were obtained from the Venter laboratory stock ([Welch et al., 2010]). The protocol for microbial growth was adopted from the European Committee on Antimicrobial Susceptibility Testing (EUCAST) ([European Committee for Antimicrobial Susceptibility Testing, 2016]).
(§2) Non-fastidious bacteria and clinical isolates were maintained in Mueller Hinton (MH) broth (Acumedia, United Kingdom) supplemented with 15% (v/v) glycerol (Chem-Supply, Australia), cultured on Mueller Hinton (MH) agar (Acumedia, United Kingdom) plated and incubated at 37°C. Fastidious bacteria were maintained in Brain Heart Infusion (BHI) broth (Acumedia, United Kingdom) supplemented with 15% (v/v) glycerol at −80°C. The fastidious bacteria were cultured on MH agar plates supplemented with 5% (v/v) lysed horse blood and 3% (v/v) fetal bovine serum and incubated at 30°C in the presence of 5% CO2. Drug susceptibility assays were carried out with the non-fastidious cultures grown in cation-adjusted Mueller Hinton (CaMH) broth (Becton Dickinson, France). Streptococcus pyogenes was grown in CaMH broth supplemented with 5% (v/v) lysed horse blood and 3% (v/v) fetal bovine serum whereas Enterococcus faecium was grown in BHI broth.
(§3) The minimum inhibitory concentrations (MICs) for all six compounds were determined using the microbroth dilution protocol as per EUCAST with an inoculum of approximately […] in an exponential growth phase ([European Committee for Antimicrobial Susceptibility Testing, 2016]). Bacterial suspension, 100 μL/well, was added to 100 μL/well of drug dilutions, then incubated for 18 h at 37°C. Fastidious bacterial suspensions were instead incubated at 30°C in the presence of 5% CO2. Bacterial growth was assessed by measuring the change in A600 nm between time 0 and 18 h (Cytation5® Cell Imaging Multi-Mode Reader, Bio-Tek®). Levofloxacin was used as the positive control. Assays were completed in duplicate in at least three independent experiments.
(In general: In broth dilution the organism is exposed to a series of concentrations in liquid medium.)

Assay [2] concerns Klebsiella pneumoniae ATCC 4352. In words: Antibacterial activity (MIC), microbroth dilution. It is filed as cell-based. Conditions: Klebsiella pneumoniae, ATCC4352, read-out: Antibacterial activity (MIC). The protocol: as §1, §2, §3
Assay [3] deals with Klebsiella pneumoniae ATCC 13883. In words: Antibacterial activity (MIC), microbroth dilution. Type of assay: cell-based. Conditions: Klebsiella pneumoniae, ATCC13883, read-out: Antibacterial activity (MIC). The protocol:
as §1, §2, §3

Assay [4] deals with Streptococcus pneumoniae (type 3, mucoid strain) ATCC 6303. The assay can be described thus: Antibacterial activity (MIC), microbroth dilution. Type of assay: cell-based. Conditions: Streptococcus pneumoniae, ATCC6303, read-out: Antibacterial activity (MIC). The protocol:
as §1, §2, §3

In assay [5] the test system is Methicillin resistant Staphylococcus aureus. The assay can be described thus: Antibacterial activity (MIC), microbroth dilution. Type of assay: cell-based. Conditions: Staphylococcus aureus, ATCC 43300 / MRSA, read-out: Antibacterial activity (MIC). The method, then:
as §1, §2, §3

The test system of assay [6] is Pseudomonas aeruginosa WT PAO1. In words: Antibacterial activity (MIC), microbroth dilution. Type of assay: cell-based. Conditions: Pseudomonas aeruginosa, PAO1, read-out: Antibacterial activity (MIC). The protocol: as §1, §2, §3
The test system of assay [7] is Escherichia coli WT BW 25113. The assay can be described thus: Antibacterial activity (MIC), microbroth dilution. It is filed as cell-based. Conditions: Escherichia coli, WTBW25113, read-out: Antibacterial activity (MIC). The method, then:
as §1, §2, §3

For assay [8], the system named is Escherichia coli ATCC 35218. The assay can be described thus: Antibacterial activity (MIC), microbroth dilution. Type of assay: cell-based. Conditions: Escherichia coli, ATCC35218, read-out: Antibacterial activity (MIC). The protocol:
as §1, §2, §3

Assay [9] relates to Enterobacter aerogenes ATCC 13408. In words: Antibacterial activity (MIC), microbroth dilution. Type of assay: cell-based. To be noted: Klebsiella aerogenes, ATCC13408, read-out: Antibacterial activity (MIC). The protocol: as §1, §2, §3
In assay [10] the test system is Klebsiella pneumoniae ATCC 33495. The assay can be described thus: Antibacterial activity (MIC), microbroth dilution. Type of assay: cell-based. To be noted: Klebsiella pneumoniae, ATCC33495, read-out: Antibacterial activity (MIC). The protocol:
as §1, §2, §3

The test system of assay [11] is AbFtsZ. The assay can be described thus: AbFtsZ polymerization, 90° light scattering. It is filed as biochemical, Acinetobacter baumannii. To be noted: test compound at 128 μg/mL, AbFtsZ 0.15 mg/mL, 1 mM GTP, 8°C. The protocol:
Effects on inhibition of the cinnamaldehyde derivatives on AbFtsZ polymerization were analyzed using the assay as previously described ([Chai et al., 2020]) with the following modifications. A reaction mix was prepared in a cold Eppendorf® tube where AbFtsZ (0.15 mg/mL) was mixed with the test compound at the desired concentration and a polymerization buffer diluted from a double strength buffer to give a final concentration of 25 mM PIPES pH 6.8, 50 mM KCl and 10 mM MgCl2. The reaction mix was prepared such that the DMSO concentration remained constant at 2% (v/v). The mix was then added into a quartz cuvette (PerkinElmer®, United Kingdom), and placed in a PerkinElmer® LS 55 fluorometer under the fixed condition of excitation/emission at 350/350 nm, slit width < 2 nm, a 1 s read interval. The temperature was calibrated to remain constant at 8°C. The fluorescence was followed for 300 sec to allow equilibration, then polymerization was initiated with the addition of 1 mM GTP. A separate negative control was prepared where 1 mM GDP was added instead of the GTP. The reaction was followed for 600 s.
(A–F) AbFtsZ (0.15 mg/mL) was pre-incubated in polymerization buffer (25 mM PIPES pH 6.8, 50 mM KCl and 10 mM MgCl2) together with the test compound at 128 μg/mL for 300 s. Polymerization was then initiated with the addition of 1 mM GTP. The fluorescence was measured as a function of time at excitation and emission wavelengths of A350 and A350 nm, respectively, and a slit width of <2 nm. The blue line in each panel indicates the addition of 2.5% (v/v) DMSO, the pink line indicates the test compound tested at 128 μg/mL and the gray line represents the addition of 1 mM GDP (as negative control) instead of GTP.

Assay [12] deals with E. coli FtsZ. Conditions: FtsZ from E. coli, 120 μg/mL; ref Li et al., 2015a; cited from earlier work.

The structures appear in SMILES notation. In brackets after ≈: the same amount, converted by molar mass.

Take `Cc1nc2ccccc2n1C(=O)/C=C/c1ccc(Br)cc1` [Compound 4]: the MIC is 256 µg/mL (≈ 750 µM) in [1]; above 256 µg/mL in [2]; above 256 µg/mL in [3]; 256 µg/mL (≈ 750 µM) in [4]; above 256 µg/mL in [5]; above 256 µg/mL in assay [6]. Besides, the MIC in assay [7], in assay [8], in assay [9] and in assay [10] was above 256 µg/mL each time.

Consider `Cc1nc2ccccc2n1C(=O)/C=C/c1ccccc1` [Compound 1], for which, in assay [11], the “Inhibition of AbFtsZ polymerization” value is “strongest activity observed with compound 5, followed by compounds 1 and 6”. Also, the MIC was above 256 µg/mL in assay [1]; above 256 µg/mL in [2]; above 256 µg/mL in assay [3]; 256 µg/mL (≈ 976 µM) in [4]; 256 µg/mL (≈ 976 µM) in assay [5]; 256 µg/mL (≈ 976 µM) in assay [6]. Moreover, the MIC in assay [7], in assay [8], in assay [9] and in assay [10] was above 256 µg/mL in each case.

`COc1ccc(/C=C/C(=O)n2c(C)nc3ccccc32)cc1OC` [Compound 5]: the “Inhibition of AbFtsZ polymerization” value in assay [11] is “strongest activity”. The MIC was above 256 µg/mL in [1]; above 256 µg/mL in assay [2]; above 256 µg/mL in [3]; 256 µg/mL (≈ 794 µM) in [4]; above 256 µg/mL in [5]; above 256 µg/mL in assay [6]. Besides, the MIC in assay [7], in assay [8], in assay [9] and in [10] was above 256 µg/mL each time.

As to `Cc1nc2ccccc2n1C(=O)/C=C/c1ccc(F)cc1` [Compound 2], the “Effect on FtsZ polymerization, light scattering” value (“Effect on FtsZ polymerization” below) in assay [12] is given as “impaired polymerization”. For the same compound, the MIC is above 256 µg/mL in assay [1]; above 256 µg/mL in assay [2]; above 256 µg/mL in assay [3]; 256 µg/mL (≈ 913 µM) in [4]; above 256 µg/mL in assay [5]; 256 µg/mL (≈ 913 µM) in assay [6]. Also, the MIC in [7], in assay [8], in [9] and in assay [10] was above 256 µg/mL each time.

`Cc1nc2ccccc2n1C(=O)/C=C/c1ccc(Cl)cc1` [Compound 3]: the “Effect on FtsZ polymerization” value in assay [12] is recorded as “impaired polymerization”. Further, the MIC in [1] is above 256 µg/mL; in [2], above 256 µg/mL; in assay [3], above 256 µg/mL; in [4], 256 µg/mL (≈ 863 µM); in assay [5] it was above 256 µg/mL; in assay [6], above 256 µg/mL. Also, the MIC in assay [7], in assay [8], in [9] and in assay [10] was above 256 µg/mL in each case.

With `Cc1nc2ccccc2n1C(=O)/C=C/c1ccc(Cl)cc1Cl` [Compound 6], the “Effect on FtsZ polymerization” value in [12] is recorded as “impaired polymerization”. Further, the “Inhibition of AbFtsZ polymerization” value in assay [11] was “strongest activity observed with compound 5, followed by compounds 1 and 6”. Also, the MIC in assay [1] is above 256 µg/mL; in assay [2] it was above 256 µg/mL; in assay [3], above 256 µg/mL; in assay [4] it was 256 µg/mL (≈ 773 µM); in [5] it was 64 µg/mL (≈ 193 µM); in assay [6], 256 µg/mL (≈ 773 µM). Also, the MIC in assay [7], in assay [8], in [9] and in [10] was above 256 µg/mL each time.

As a reminder, the MIC is the smallest concentration in the dilution series that meets the test's criterion for growth inhibition.

The values are drawn from paper PMC9465178, “Cinnamaldehyde derivatives act as antimicrobial agents against Acinetobacter baumannii through the inhibition of cell division” (Frontiers in Microbiology, 2022).
